Data published in ChEMBL document CHEMBL1133282, “Synthesis and preliminary biological evaluation of 4,6-disubstituted 3-cyanopyridin-2(1H)-ones, a new class of calcium entry blockers” (Bioorg Med Chem Lett, 2000).

Experiments:
Format in all cases: functional
Rattus norvegicus [1] = organism: Rattus norvegicus; assay: Tested in vitro on K+ -depolarized rat aorta strips to evaluate its ability to relax the initial contraction induced by K
Rattus norvegicus [2] = organism: Rattus norvegicus; assay: Vasorelaxing activity expressed as maximum smooth muscle relaxation at 1*10e-4 M
Rattus norvegicus [3] = organism: Rattus norvegicus; assay: Vasorelaxing activity expressed as maximum smooth muscle relaxation at 1*10e-5 M

Row | SMILES | IC50 (Rattus norvegicus [1]) | Max relaxation (Rattus norvegicus [2]) | Max relaxation (Rattus norvegicus [3])
1 | Cc1ccccc1-c1cc(-c2ccccc2O)nc(O)c1C#N | 1000 nM | 89.17% | –
2 | COc1ccc(-c2cc(-c3ccccc3O)nc(O)c2C#N)c(OC)c1 | 380 nM | 40% | –
3 | N#Cc1c(-c2ccccc2Br)cc(-c2ccccc2O)nc1O | 17000 nM | 35.29% | –
4 | N#Cc1c(-c2cccc([N+](=O)[O-])c2)cc(-c2ccccc2O)nc1O | 500 nM | 64% | –

Now those with a lower IC50 (Rattus norvegicus [1]), led by results:

Row | IC50 (Rattus norvegicus [1]) | SMILES | Max relaxation (Rattus norvegicus [2]) | Max relaxation (Rattus norvegicus [3])
5 | 48 nM | COc1ccc([C@@H]2Sc3ccccc3N(CCN(C)C)C(=O)[C@@H]2OC(C)=O)cc1 [DILTIAZEM] | 97.86% | –
6 | 30 nM | N#Cc1c(-c2ccccc2Cl)cc(-c2ccccc2O)nc1O | 79.78% | –
7 | 12 nM | COc1ccccc1-c1cc(-c2ccccc2O)nc(O)c1C#N | 99.54% | –
8 | 1.1 nM | COc1ccc(OC)c(-c2cc(-c3ccccc3O)nc(O)c2C#N)c1 | – | 95.51%
9 | 0.95 nM | N#Cc1c(-c2ccccc2)cc(-c2ccccc2O)[nH]c1=O | 23.86% | –
